Laboratory results taken from patent US20110229411A1, “USE OF P2X7 PATHWAY FOR ASSESSING THE SENSITIVITY OF A SUBJECT TO A CANCER TREATMENT” (INSTITUT GUSTAVE ROUSSY, priority 2008, published 2011).

Assays:
[1] = system: CT26 colon cancer cells; experiment: ATP assays on doxorubicin-treated tumor cells; assay type: cell-based, mouse; settings: CT26, doxorubicin 20 μM
Description: (§1) FIG. 3: Identification of AT P release as a limiting factor of anti-cancer vaccination by dying CT 26 cells. FIG. 3a-b Idem as in FIGS. 1a and b, but using the mouse colon cancer CT26 exposed to doxorubicin. Data of one representative experiment out of three are depicted. FIG. 3. c-d. […] Mice were immunized with PBS or dying CT26 tumor cells. Dying CT26 were first treated with doxorubicin for 24 hours and were then incubated with antimycin A/deoxyglucose (A/D) for 20 min. Cells were washed after A/D exposure and before subcutaneous inoculation (c). Alternatively, dying CT26 were inoculated alone or together with oxiATP (d). Seven days later, mice (15 per group in a total of 3 distinct experiments) were inoculated with live syngeneic tumor cells and tumor growth was monitored. * p<0.05.
Plates were read in a Fluostar luminometer (BMG Labtech).

[2] = system: CT26 cells; experiment: Cell death induction for vaccination, FACS analysis of Annexin V+ DAPI+ cells; assay type: cell-based, mouse; settings: CT26, 20 μM doxorubicin, 24 hours
Description: Anti cancer vaccination was assessed using a previously described setting (Casares et al., 2005; Obeid et al., 2007). CT26 cells were cultured with either PBS or 20 μM doxorubicin, and MCA205 with either PBS or 1 μM mitoxantrone for 24 h. All these treatments led to ˜50% of Annexin V^+ DAPI^+ cells, as assessed by FACS analysis at 24 hours. After careful washes, cells were resuspended in sterile PBS. CT26 cells were incubated in the presence or in the absence of antimycin A and deoxyglucose (2 μg/ml and 30 mM, respectively) for 20 min, or in the presence or in the absence of Oxi-ATP ([…]). After 3 washes, 3×10^6 dying CT26 cells (or 3×10^5 MCA205 cells) were injected subcutaneously into the left flank of mice. In some experiments, 100 μg of IL-1Ra (Anakinra) was injected along with the dying cells. Seven days later, mice were rechallenged into the right flank with 5×10^5 live CT26 cells (or, alternatively, 3.10^4 live MCA205 cells). Tumor growth was then monitored weekly.

[3] = system: CT26 cells; experiment: Anti-cancer vaccination with dying CT26 cells and rechallenge with live tumor cells; assay type: in vivo, mice; settings: doxorubicin-treated CT26, rechallenge with live cells seven days later
Description: as §1
Anti cancer vaccination was assessed using a previously described setting (Casares et al., 2005; Obeid et al., 2007). CT26 cells were cultured with either PBS or 20 μM doxorubicin, and MCA205 with either PBS or 1 μM mitoxantrone for 24 h. All these treatments led to ˜50% of Annexin V^+ DAPI^+ cells, as assessed by FACS analysis at 24 hours. After careful washes, cells were resuspended in sterile PBS. […] Tumor growth was then monitored weekly.

[4] = system: T cell priming for IFNγ production; experiment: Priming assay: dying EG7 cells injected into the footpad, IFNγ secretion of restimulated popliteal lymph node cells; assay type: in vivo, mice
Description: 1.10^6 CT26, EG7, or B16F10 cells were either left untreated or treated with doxorubicin (20 μM) or oxaliplatin (5 μg/ml) for 24 h. Cells were then injected into the footpad of syngenic mice. In some experiments, 20 or 100 μg of IL-1Ra (Anakinra) or 250 ng of recombinant murine IL-1β (or 250 ng of IL-6 or 50 ng of IL-12) was injected along with dying tumor cells into the footpad of mice. Alternatively, DC were cocultured with EG7 cells for 2 hours, followed by the purification of CD11c^+ cells with anti-CD11c mAb coupled to magnetic beads (Miltenyi Biotec, Paris, France) and injection of these purified DC into the footpad. Five days later, gangliocytes from popliteal lymph nodes were harvested, seeded in 96 U-well plates (3.10^5 cells per well), and restimulated with 1 mg/ml OVA protein. Restimulation with MCA205 or CT26 cells was performed using 3×10^4 tumor cells killed by 5 min heating at 42° C. followed by 1 cycle of freezing/thawing in liquid nitrogen. For B16F10, restimulation was achieved using gp100 peptide as previously described (Overwijk et al., 1998). As a positive control of T cell priming, mice were injected with OVA protein (1 mg) (or gp100 for B16F10) and the association of CpG (10 μg) and Poly I:C (5 μg). For CT26 priming experiments, cell lysate plus LPS (250 ng) was used as a positive control. Supernatants were harvested 72 hours later, and IFNγ secretion was assessed by ELISA. Alternatively, cells were stimulated with PMA (10 ng/ml) and ionomycin (1 μg/ml) for 1 h, followed by the addition of brefeldin A (10 μg/ml for 6 h at 37° C.) (Apetoh et al., 2007), surface staining with Abs specific for CD3, CD4 or CD8, fixation and permeabilization (Cytofix/cytoperm kit) and then labeled with antibodies specific for IFNγ. Immunofluorescence was analyzed on a LSRII flow cytometer (BD Biosciences) with FACSDiva software.

[5] = system: CT26 tumors; experiment: Chemotherapy of CT26 tumors established in mice; assay type: in vivo; settings: doxorubicin i.t.; 100 μg on day 0 and day 2, WT mice
Description: FIG. 17. The anti-cancer activity of oxaliplatin depends on P2X7 and the NALP3 inflammasome. FIG. 17a,b,c. Therapeutic efficacy of oxaliplatin on established tumors depends on the integrity of the immune system on the P2X7/NALP3/casp-1 axis. EL4 thymoma tumors were established in syngenic mice bearing the indicated genotypes (a-c) or injected with anti-CD8 antibody (a). When the tumor reached 70-90mm^2 in size, mice were either left untreated or were treated with oxaliplatin. Each treatment group included 5-6 mice (X±SEM), and each experiment was repeated three times with similar results. * p<0.05. d. Caspase 1 is required for the immune response promoted by oxaliplatin chemotherapy. EG7 tumors established in the thigh were treated with one systemic injection of oxaliplatin. Inguinal lymph node cells were harvested 5 days later, and the gangliocytes were restimulated in vitro. IFNγ secretion was assessed by ELISA. Results (means of triplicates ±SEM, n=3) are representative of one typical experiment out of three. ^*P<0.01. FIG. 17d. […] The time to metastatic progression was analyzed in 225 women with non-metastatic breast cancer who received adjuvant chemotherapy with anthracylines.
Wild type or loss-of-function C57BL/6 mice were injected s.c. with 10^6 EL4 cells into the right flank. […] The tumor surface was monitored using a caliper. […]

[6] = system: EL4 thymoma tumors; experiment: Chemotherapy of EL4 tumors established in mice; assay type: in vivo; settings: co-treatment, data not shown
Description: FIG. 17. The anti-cancer activity of oxaliplatin depends on P2X7 and the NALP3 inflammasome. FIG. 17a,b,c. Therapeutic efficacy of oxaliplatin on established tumors depends on the integrity of the immune system on the P2X7/NALP3/casp-1 axis. EL4 thymoma tumors were established in syngenic mice bearing the indicated genotypes (a-c) or injected with anti-CD8 antibody (a). When the tumor reached 70-90mm^2 in size, mice were either left untreated or were treated with oxaliplatin. Each treatment group included 5-6 mice (X±SEM), and each experiment was repeated three times with similar results. * p<0.05. d. Caspase 1 is required for the immune response promoted by oxaliplatin chemotherapy. EG7 tumors established in the thigh were treated with one systemic injection of oxaliplatin. Inguinal lymph node cells were harvested 5 days later, and the gangliocytes were restimulated in vitro. IFNγ secretion was assessed by ELISA. Results (means of triplicates ±SEM, n=3) are representative of one typical experiment out of three. ^*P<0.01. FIG. 17d. The efficacy of anthracyclines against established colon cancer is dependent on IL-1β. CT26 tumors established for 10 days in WT mice were treated with one local injection of doxorubicin in the absence or presence of neutralizing anti-IL-1β Ab (n=10/group, *p<0.05). FIG. 17e. A single-nucleotide polymorphism (SNP) in P2X7 (rs3751143) affects the long-term efficacy of conventional anti-cancer therapy in breast cancer patients. Comparative Kaplan-Meier estimates of time to metastasis in two groups of patients bearing the normal (Glu496Glu) or loss-of-function (Glu496Ala) P2X7 alleles. The time to metastatic progression was analyzed in 225 women with non-metastatic breast cancer who received adjuvant chemotherapy with anthracylines.
Wild type or loss-of-function C57BL/6 mice were injected s.c. with 10^6 EL4 cells into the right flank. Alternatively, wild-type BALB/c mice were injected with 5.10^5 CT26 cells into the right flank. Mice were then randomly assigned to treatment groups of 4-6 mice each. The tumor surface was monitored using a caliper. When tumor size reached 70-90 mm^2 for EL4 (9-12 days post-injection) or 60-80 mm^2 for CT26 (8-10 days post-injection), mice received chemotherapy (Apetoh et al., 2007). Mice bearing EL4 tumors were injected with oxaliplatin (5 mg/kg i.p), while mice bearing CT26 tumors were injected with doxorubicin (50 μl, 4 mM i.t). In some experiments, CT26 tumor-bearing mice received two injections (on day 0 and day 2 after the commencement of chemotherapeutic treatment) of IL-1Ra (McIntyre et al., 1991) (100 μg), anti-IL-1 antibody (100 μg) or hamster serum as a control.

[7] = system: T cell priming for IFNγ production; experiment: Priming assay with dying CT26 cells, restimulation with CT26 or MCA205 tumor lysate, IFNγ production; assay type: in vivo; settings: IL-1Ra 100 μg co-inoculated, WT mice
Description: FIG. 14: The immunogenicity of cell death requires active IL-1β. Mice were immunized with PBS or dying CT26 tumor cells treated with doxorubicin or freeze thawing and LPS. Dying CT26 were co-inoculated together with IL-1Ra (100 μg) into the […] of WT mice. Five days later, mice (n=5 mice/group) were sacrificed to harvest popliteal lymph nodes for in vitro restimulation with CT26 or MCA205 tumor lysate and assessment of IFNγ production. *p<0.05.
1.10^6 CT26, EG7, or B16F10 cells were either left untreated or treated with doxorubicin (20 μM) or oxaliplatin (5 μg/ml) for 24 h. Cells were then injected into the footpad of syngenic mice. In some experiments, 20 or 100 μg of IL-1Ra (Anakinra) or 250 ng of recombinant murine IL-1β (or 250 ng of IL-6 or 50 ng of IL-12) was injected along with dying tumor cells into the footpad of mice. Alternatively, DC were cocultured with EG7 cells for 2 hours, followed by the purification of CD11c^+ cells with anti-CD11c mAb coupled to magnetic beads (Miltenyi Biotec, Paris, France) and injection of these purified DC into the footpad. […] Supernatants were harvested 72 hours later, and IFNγ secretion was assessed by ELISA. […] Immunofluorescence was analyzed on a LSRII flow cytometer (BD Biosciences) with FACSDiva software.

[8] = system: CD3+ CD8+ T cells; experiment: In vitro stimulation of CD8+ T-cells with anti-CD3 and anti-CD28 mAb plus cytokines; assay type: cell-based, mouse; settings: CD3 plus CD28 cross-linking; 10 ng/ml IL-12p70, 100 ng/ml IL-1β, IL-6, TNFα
Description: (§2) FIG. 15. IL-1β-dependent CTL priming by dying tumor cells in vitro and in vivo. FIG. 15a. MyD88 is required at the level of the host but not that of the APC. DC from WT mice were first loaded with antigen (OVA holoprotein with C/P adjuvant, live or oxaliplatin-treated EG7 cells) and then injected into the footpad of into WT or MyD88^−/− recipients (n=6 mice/group). Five days later, the local immune response was measured as in FIG. 2d,e. Results of one typical experiment out of three are depicted. FIG. 15b. Casp-1 and IL-1β-dependent OT-I priming in vitro. The differentiation of IFNγ producing CD8^+ OT-1 cells was induced by incubating naïve OVA-specific TCR transgenic OT-1 lymphocytes with syngeneic BM-DC (derived from WT or Casp-1^−/− mice) that were loaded with oxaliplatin-treated EG7 for 2 days in vitro. […] Exogenous addition of rIL-1β (100 ng/ml) or IL-12 (10 ng/ml) to cocultures of Casp-1^−/− DC loaded with dying tumor cells and incubated with OT1 restored T cell priming. […] FIG. 15c. Specific and direct polarizing effects of IL-1β on T lymphocytes in vitro. Purified CD3^+ CD8^+ T cells derived from naïve WT mice were stimulated with anti-CD3 and anti-CD28 mAb for 5 days in the presence of the indicated cytokines (10 ng/ml for IL-12p70, 100 ng/ml for IL-1β, IL-6 and TNFα) -and IFNγ production was measured as in FIG. 3b. FIG. 15d. […]

[9] = system: OT-1 CD8+ T cells; experiment: In vitro stimulation of OT-1 cells by BM-DC loaded with oxaliplatin-treated EG7; assay type: cell-based, mouse; settings: rIL-1β 100 ng/ml or IL-12 10 ng/ml added to cocultures
Description: as §2

COc1cccc2c1C(=O)c1c(O)c3c(c(O)c1C2=O)C[C@@](O)(C(=O)CO)C[C@@H]3O[C@H]1C[C@H](N)[C@H](O)[C@H](C)O1 [doxorubicin]
release of ATP [1]: released ATP
Annexin V+ DAPI+ cells [2]: ~50%

Nc1ncnc2c1ncn2[C@@H](C=O)O[C@@H](C=O)COP(=O)(O)OP(=O)(O)OP(=O)(O)O [oxiATP, 2′,3′-dialdehyde derivative of ATP]
efficacy of vaccination with dying tumor cells [3]: prevent the efficacy of vaccination
T cell priming triggered by OVA protein plus adjuvant ([4]; OVA with PolyI:C+CpG in presence of oxiATP): did not affect T cell priming
T cell priming by oxaliplatin-treated EG7 cells ([4]; cells admixed with oxiATP, footpad, C57Bl/6 mice): abolished T cell priming

IL-1Ra: recombinant IL-1 receptor antagonist, Kineret Anakinra (Amgen)
T cell priming in vivo by oxaliplatin-treated EG7 cells (IFNγ after restimulation with OVA) ([4]; IL-1Ra co-injected into the footpad): failed to prime T cells in vivo
cytoplasmic IFNγ staining of CD3+CD8+ T lymphocytes ([4]; IL-1Ra co-injected, restimulation with PMA-ionomycin, flow cytometry): failed to stain positively for cytoplasmic IFNγ
effect on the response of CT26 tumors to anthracyclines [5]: blunted the response
effect on the response of EL4 tumors to oxaliplatin [6]: blunted the response
tumor-specific IFNγ response of T cells primed by dying CT26 cells [7]: abolished

B1: IL-1β: recombinant mouse IL-1β from R&D Systems (protein)
chain: VPIRQLHYRLRDEQQKSLVLSDPYELKALHLNGQNINQQVIFSMSFVQGEPSNDKIPVALGLKGKNLYLSCVMKDGTPTLQLESVDPKQYPKKKMEKRFVFNKIEVKSKVEFESAEFPNWYISTSQAEHKPVFLGNNSGQDIIDFTMESVSS
IFNγ production by naive CD3+CD8+ splenic T cells [8]: failed to produce IFNγ, unless IL-113
T cell priming in Nalp3−/− or Casp1−/− mice ([4]; cytokine co-injected with oxaliplatin-treated EG7: rIL-1β 250 ng, rIL-12 50 ng, rIL-6 250 ng per footpad): restored deficient T cell priming
priming capacity of Casp-1−/− DC for OT-1 cells (IFNγ) [9]: restored the priming capacity
